Assay: molar heat capacity at constant pressure
Details: 101.33 kPa, Crystal, relaxation calorimetry

[Al+3].[Al+3].[O-2].[O-2].[O-2] [aluminum oxide (Al2O3)]
Details	molar heat capacity at constant pressure [J/K/mol]
1.93 K	7.666e-05
2.15 K	9.655e-05
2.39 K	0.0001341
2.65 K	0.0001785
2.95 K	0.0002464
3.28 K	0.0003342
3.64 K	0.0004613
4.04 K	0.0006149
4.49 K	0.0008379
4.98 K	0.001136
5.523 K	0.001541
6.13 K	0.00216
6.8 K	0.002926
7.54 K	0.004006
8.36 K	0.005388
9.27 K	0.007325
10.28 K	0.009979
11.37 K	0.0134
12.61 K	0.01843
13.99 K	0.02532
15.52 K	0.03431
17.22 K	0.04685
19.12 K	0.06451
21.23 K	0.08864
23.58 K	0.1229
26.17 K	0.1719
29.08 K	0.2396
32.22 K	0.3344
35.73 K	0.4743
39.62 K	0.6761
43.94 K	0.9644
48.73 K	1.379
54.06 K	1.968
59.98 K	2.789
66.54 K	3.91
73.85 K	5.425
81.95 K	7.444
90.93 K	9.991
100.91 K	13.15
111.18 K	16.79
121.13 K	20.54
131.17 K	24.48
141.28 K	28.54
151.4 K	32.54
161.47 K	36.62
171.56 K	40.51
181.6 K	44.37
191.67 K	48.13
201.78 K	51.63
211.87 K	55.13
221.94 K	58.53
232 K	61.73
241.98 K	64.63
252.05 K	67.6
262.17 K	70.28
272.22 K	72.77
282.18 K	75.28
292.31 K	77.45
297.27 K	78.3
302.27 K	79.34
302.29 K	79.63
307.31 K	80.41
312.34 K	81.4
317.3 K	82.41
322.32 K	83.31
327.42 K	84.26
332.46 K	85.09
337.41 K	85.84
342.44 K	86.73
347.58 K	87.72
352.67 K	88.65
357.7 K	89.47
362.73 K	90.24
367.75 K	90.97
372.77 K	91.84
377.77 K	92.8
382.79 K	93.27
387.76 K	94.14
392.76 K	95.04
397.77 K	95.81

[Cu] [copper]
Details	molar heat capacity at constant pressure [J/K/mol]
1.93 K	0.001713
2.15 K	0.002021
2.39 K	0.002319
2.65 K	0.002809
2.95 K	0.003326
3.28 K	0.003967
3.64 K	0.004911
4.04 K	0.005973
4.48 K	0.007493
4.97 K	0.009444
5.51 K	0.01204
6.11 K	0.01543
6.78 K	0.0199
7.52 K	0.02598
8.33 K	0.03421
9.24 K	0.04517
10.25 K	0.06013
11.34 K	0.08043
12.58 K	0.1091
13.96 K	0.149
15.48 K	0.2052
17.18 K	0.2844
19.06 K	0.3981
21.16 K	0.5588
23.49 K	0.7857
26.06 K	1.094
28.95 K	1.514
32.07 K	2.062
35.61 K	2.768
39.52 K	3.635
43.85 K	4.662
48.66 K	5.846
54.01 K	7.178
59.94 K	8.631
66.51 K	10.16
73.83 K	11.68
81.93 K	13.27
90.94 K	14.71
100.89 K	16.04
111.02 K	17.3
121.12 K	18.35
131.2 K	19.24
141.26 K	19.93
151.41 K	20.52
161.51 K	21.05
171.6 K	21.5
181.69 K	21.94
191.78 K	22.25
201.87 K	22.55
212 K	22.82
222.11 K	23.11
232.19 K	23.37
242.21 K	23.57
252.34 K	23.79
262.41 K	23.94
272.42 K	24.1
282.6 K	24.3
292.63 K	24.41
297.94 K	24.49
302.69 K	24.51
302.72 K	24.54
307.82 K	24.55
312.89 K	24.59
317.83 K	24.7
322.91 K	24.68
328.03 K	24.79
333.05 K	24.87
338.06 K	24.81
343.13 K	24.9
348.29 K	25.01
353.34 K	25.13
358.42 K	25.09
363.5 K	25.13
368.53 K	25.23
373.56 K	25.3
378.59 K	25.4
383.61 K	25.45
388.61 K	25.48
393.64 K	25.58
398.65 K	25.68

O=C(O)c1ccccc1 [benzoic acid]
Details	molar heat capacity at constant pressure [J/K/mol]
1.93 K	0.01333
2.15 K	0.01845
2.39 K	0.0255
2.66 K	0.03397
2.96 K	0.04707
3.29 K	0.06572
3.65 K	0.08963
4.05 K	0.1233
4.49 K	0.1714
4.99 K	0.2363
5.54 K	0.3302
6.14 K	0.4631
6.81 K	0.6487
7.56 K	0.9052
8.38 K	1.253
9.29 K	1.714
10.26 K	2.266
11.36 K	3.021
12.61 K	3.971
13.99 K	5.144
15.52 K	6.537
17.23 K	8.219
19.12 K	10.17
21.21 K	12.39
23.54 K	14.97
26.1 K	17.79
28.96 K	20.88
32.16 K	24.14
35.67 K	27.61
39.58 K	31.21
43.9 K	34.8
48.73 K	38.39
54.07 K	42.02
60 K	45.71
66.57 K	49.33
73.89 K	52.81
82 K	56.69
91.01 K	60.28
100.97 K	63.46
111.11 K	67.66
121.2 K	71.28
131.23 K	75.08
141.33 K	78.93
151.47 K	82.66
161.56 K	86.28
171.65 K	90.21
181.75 K	94.38
191.83 K	98.14
201.92 K	101.91
212.02 K	106.35
222.12 K	110.99
232.21 K	115.4
242.21 K	119.97
252.4 K	124.67
262.46 K	128.8
272.51 K	133.51
282.55 K	138.2
292.7 K	141.62
302.71 K	144.34
